Assay results taken from patent publication US20240352010A1, “SUBSTITUTED 1,2,4-THIADIAZOLYL NICOTINAMIDES, SALTS OR N-OXIDES THEREOF AND THEIR USE AS HERBICIDALLY ACTIVE SUBSTANCES” (BayerAktiengesellschaft, priority 2021, published 2024).

Experiments:
Assay type in all cases: in vivo
[1] = tested on: Matricaria inodora (MATIN); test: Herbicidal pre-emergence action, MATIN
Source text: (§1) Seeds of mono- and dicotyledonous weed plants were sown in plastic pots (double sowings with one species of mono- and one species of dicotyledonous weed plants per pot), in sandy loam, and covered with soil. The compounds according to the invention, formulated in the form of wettable powders (WP) or as emulsifiable concentrates (EC), were applied to the surface of the covering soil as an aqueous suspension or as an emulsion, with the addition of 0.5% of an additive, at an application rate of 600 litres of water per hectare (converted). Following treatment, the pots were placed in a greenhouse and kept under optimum growth conditions for the test plants. The visual grading of the damage to the test plants is carried out after ca. 3 weeks in comparison to untreated controls (herbicidal effect in percent (%): 100% effect=plants have died, 0% effect=as control plants). Seeds of mono- and dicotyledonous weed plants were sown in plastic pots (double sowings with one species of mono- and one species of dicotyledonous weed plants per pot), in sandy loam, and covered with soil. The compounds according to the invention, formulated in the form of wettable powders (WP) or as emulsifiable concentrates (EC), were applied to the surface of the covering soil as an aqueous suspension or as an emulsion, with the addition of 0.5% of an additive, at an application rate of 600 litres of water per hectare (converted). Following treatment, the pots were placed in a greenhouse and kept under optimum growth conditions for the test plants. The visual grading of the damage to the test plants is carried out after ca. 3 weeks in comparison to untreated controls (herbicidal effect in percent (%): 100% effect=plants have died, 0% effect=as control plants).

[2] = tested on: Amaranthus retroflexus (AMARE); test: Herbicidal pre-emergence action, AMARE
Source text: as §1

Kochia scoparia (KCHSC) [3] = test: Herbicidal pre-emergence action, KCHSC; settings: 1280 g/ha, visual grading after ca. 3 weeks vs untreated controls (Table A4)
Source text: as §1

Poa annua (POAAN) [4] = test: Herbicidal pre-emergence action, POAAN; settings: 1280 g/ha, visual grading after ca. 3 weeks vs untreated controls (Table A7)
Source text: as §1

Stellaria media (STEME) [5] = test: Herbicidal pre-emergence action, STEME
Source text: as §1

[6] = tested on: Amaranthus retroflexus (AMARE); test: Herbicidal post-emergence action, AMARE
Source text: (§2) Seeds of mono- and dicotyledonous weed plants were sown in plastic pots (double sowings with one species of mono- and one species of dicotyledonous weed plants per pot), in sandy loam, covered with soil and grown under controlled growth conditions. 2 to 3 weeks after sowing, the test plants were sprayed in the single-leaf stage. The compounds according to the invention, formulated in the form of wettable powders (WP) or as emulsifiable concentrates (EC), were sprayed onto the green plant parts as an aqueous suspension or as an emulsion, with the addition of 0.5% of an additive, at an application rate of 600 litres of water per hectare (converted). The test plants were placed in the greenhouse for ca. 3 weeks under optimum growth conditions, and then the effect of the preparations is assessed visually in comparison with untreated controls (herbicidal effect in percent (%): 100% effect=plants have died, 0% effect=as control plants). […]

Kochia scoparia (KCHSC) [7] = test: Herbicidal post-emergence action, KCHSC; settings: 1280 g/ha, assessed visually after ca. 3 weeks vs untreated controls (Table B4)
Source text: as §2

[8] = tested on: Matricaria inodora (MATIN); test: Herbicidal post-emergence action, MATIN; settings: 1280 g/ha, assessed visually after ca. 3 weeks vs untreated controls (Table B6)
Source text: as §2

Poa annua (POAAN) [9] = test: Herbicidal post-emergence action, POAAN; settings: 1280 g/ha, assessed visually after ca. 3 weeks vs untreated controls (Table B8)
Source text: as §2

Stellaria media (STEME) [10] = test: Herbicidal post-emergence action, STEME
Source text: as §2

Veronica persica (VERPE) = test: Herbicidal post-emergence action, VERPE; settings: 1280 g/ha, assessed visually after ca. 3 weeks vs untreated controls (Table B10)
Source text: as §2

Setaria viridis (SETVI) [11] = test: Herbicidal pre-emergence action, SETVI; settings: 1280 g/ha, visual grading after ca. 3 weeks vs untreated controls (Table A8)
Source text: as §1

Setaria viridis (SETVI) [12] = test: Herbicidal post-emergence action, SETVI; settings: 1280 g/ha, assessed visually after ca. 3 weeks vs untreated controls (Table B7)
Source text: as §2

[13] = 320 g/ha, visual grading after ca. 3 weeks vs untreated controls (Table C3)
[14] = 1280 g/ha, visual grading after ca. 3 weeks vs untreated controls (Table A6)
[15] = 1280 g/ha, visual grading after ca. 3 weeks vs untreated controls (Table A11)
[16] = 320 g/ha, visual grading after ca. 3 weeks vs untreated controls (Table C6)
[17] = 1280 g/ha, visual grading after ca. 3 weeks vs untreated controls (Table A9)
[18] = 320 g/ha, assessed visually after ca. 3 weeks vs untreated controls (Table D6)
[19] = 1280 g/ha, assessed visually after ca. 3 weeks vs untreated controls (Table B11)
[20] = 1280 g/ha, assessed visually after ca. 3 weeks vs untreated controls (Table B9)

COc1nccc(C2CC2(F)F)c1C(=O)Nc1ncns1 (stereo not drawn) [Example I-001, 4-(2,2-difluorocyclopropyl)-2-methoxy-N-(1,2,4-thiadiazol-5-yl)pyridine-3-carboxamide]
90%: herbicidal effect in percent, MATIN [1, 13] | herbicidal effect in percent, MATIN [1, 14]

O=C(Nc1ncns1)c1cnccc1C1CC1 [Example I-008]
90%: herbicidal effect in percent, AMARE ([2]; 320 g/ha, visual grading after ca. 3 weeks vs untreated controls (Table C8)) | herbicidal effect in percent, KCHSC (Kochia scoparia (KCHSC) [3]) | herbicidal effect in percent, POAAN (Poa annua (POAAN) [4]) | herbicidal effect in percent, STEME (Stellaria media (STEME) [5]; [16]) | herbicidal effect in percent, STEME (Stellaria media (STEME) [5]; [17]) | herbicidal effect in percent, AMARE [6, 18] | herbicidal effect in percent, KCHSC (Kochia scoparia (KCHSC) [7]) | herbicidal effect in percent, POAAN (Poa annua (POAAN) [9]) | herbicidal effect in percent, VERPE (Veronica persica (VERPE))
100%: herbicidal effect in percent, AMARE [2, 15] | herbicidal effect in percent, AMARE [6, 19] | herbicidal effect in percent, MATIN [8] | herbicidal effect in percent, STEME (Stellaria media (STEME) [10]; [20])

CC1CC1c1ccnc(Cl)c1C(=O)Nc1ncns1 (stereo not drawn) [Example I-004]
90%: herbicidal effect in percent, MATIN [1, 14] | herbicidal effect in percent, SETVI (Setaria viridis (SETVI) [11]) | herbicidal effect in percent, STEME (Stellaria media (STEME) [5]; [17]) | herbicidal effect in percent, KCHSC (Kochia scoparia (KCHSC) [7]) | herbicidal effect in percent, STEME (Stellaria media (STEME) [10]; 320 g/ha, assessed visually after ca. 3 weeks vs untreated controls (Table D4)) | herbicidal effect in percent, VERPE (Veronica persica (VERPE))
100%: herbicidal effect in percent, AMARE [2, 15] | herbicidal effect in percent, AMARE [6, 18] | herbicidal effect in percent, AMARE [6, 19] | herbicidal effect in percent, MATIN [8] | herbicidal effect in percent, SETVI (Setaria viridis (SETVI) [12]) | herbicidal effect in percent, STEME (Stellaria media (STEME) [10]; [20])

COc1nccc(C2CC2)c1C(=O)Nc1ncns1 [Example I-007]
100%: herbicidal effect in percent, AMARE [2, 15]
90%: herbicidal effect in percent, POAAN (Poa annua (POAAN) [4]) | herbicidal effect in percent, STEME (Stellaria media (STEME) [5]; [16]) | herbicidal effect in percent, STEME (Stellaria media (STEME) [5]; [17])

Cc1nsc(NC(=O)c2c(C3CC3)ccnc2Cl)n1 [Example I-011]
90%: herbicidal effect in percent, STEME (Stellaria media (STEME) [5]; [17]) | herbicidal effect in percent, STEME (Stellaria media (STEME) [10]; [20]) | herbicidal effect in percent, VERPE (Veronica persica (VERPE))
100%: herbicidal effect in percent, MATIN [1, 13] | herbicidal effect in percent, MATIN [1, 14]
